Structures can show the parent of a compound that is named as a salt.
Key:
[1] = test system: young Lemon Sharks (Negaprion brevirostris); settings: in vivo; cited from earlier work
[2] = test system: blue sharks and great white sharks; settings: squirted into the mouth; cited from earlier work
sharks [3] = settings: cited from earlier work
sharks [4] = settings: in vivo
[5] = test system: tiger sharks and other fish; settings: in vivo; cited from earlier work
[6] = test system: several species of sharks; settings: shark pens at Bimini, Bahamas; cited from earlier work
[7] = room temperature, heat; cited from earlier work
[8] = test system: at least four species of sharks; settings: cited from earlier work

Compound: CCCCCCCCCCCCOS(=O)(=O)[O-].[Li+] [LLS]
- repelling captive Lemon Sharks, compared with pardaxin [1]: even more effective than pardaxin

Compound: CCCCCCCCCCCCOS(=O)(=O)[O-].[Na+] [SLS]
- repellency against blue sharks and great white sharks [2]: effective repellent
- effectiveness in surrounding-cloud-mode dispersions (sharks [3]; in vivo): not effective
- repelling captive Lemon Sharks, compared with pardaxin [1]: even more effective than pardaxin

Compound: CCCCCCCCCCCCOS(=O)(=O)O [dodecyl sulfate]
- meeting the Navy's potency requirement for a nondirectional surrounding-cloud type repellent (sharks [3]; requirement 100 parts per billion (0.1 ppm or 100 micrograms/Liter)): did not meet

Compound: copper acetate
- effectiveness as a shark repellent (sharks [4]): ineffective
- efficacy against tiger sharks and other fish [5]: inefficacy
- repelling or inhibiting feeding activities [6]: fails to repel or inhibit the feeding activities

Compound: pardaxin
- storage stability [7]: not stable for room temperature storage, and was heat-sensitive
- effectiveness relative to the fresh secretion ([8]; freeze-dried form): 30%
- time for which sharks were repelled ([8]; laboratory and open sea, at least four species): ≥ 10 h

Reference: patent publication US9497973B2, “Elasmobranch-repelling compounds, methods of use and devices” (priority 2005, dated 2016)
